We go through one compound from paper PMC4710668, “Bioactivation of food genotoxicants 5-hydroxymethylfurfural and furfuryl alcohol by sulfotransferases from human, mouse and rat: a comparative study” (Archives of Toxicology, 2014).

Where “and” joins values, the source holds several entries; their conditions need not be identical. Identical values can stand only once. Marks after values point to notes of the source that are not given here.

Holding throughout (assay): FFA sulfoconjugation assay (N6-MF-A formation with adenosine as scavenger)
What all share (format): biochemical

The target in one assay is T1, hSULT1C2 (Homo sapiens, UniProt O75897).
T1 construct: made in house; host or cells: Salmonella typhimurium TA1538 (cytosolic fraction, not purified)
How it is done: (§1) Cytosolic fractions containing individual SULT forms were prepared from transgenic S. typhimurium TA1538. Table S1 in the Supplementary Material provides a summary of the thirty SULTs used in the current study together with references describing the cloning of the respective S. typhimurium TA1538 strains. The expressed SULT forms are denoted with the prefixes h, m and r for human, mouse and rat enzymes, respectively. Bacteria were grown in Luria Broth medium containing ampicillin (100 µg/ml) by stirring for 8 h at 200 revolutions/min at 37 °C. The bacterial suspensions were centrifuged at 5,000 g for 10 min. The sediments were washed twice with 25 ml of 10 mM potassium phosphate buffer (pH 7.4)/50 mM potassium chloride (KCP buffer) and centrifuged again. The pellets were taken up in 800 µl KCP buffer and sonicated thrice for 15 s with 30 s pauses in between. The soluble fraction was attained by centrifuging for 1 h at 100,000 g. The supernatants (in the following termed cytosolic preparations) were frozen at −80 °C. The protein concentrations were determined according to a bicinchoninic acid (BCA) assay protocol. The SULT concentrations in the cytosolic preparations were estimated after electrophoretic separation and immunodetection using inclusion bodies of different SULT forms as standards (Teubner et al. [2007]). The preparation of SULT inclusion bodies and the immunodetection of SULTs is described in the Supplementary Material, which also contains a representative immunoblot of different amounts of rSult1a1standard and a cytosolic preparation of S. typhimurium expressing rSult1a1 (Fig. S1).
(§2) The reaction mixtures were prepared as described for HMF. In addition, they contained 10 mM adenosine as a nucleophilic scavenger. Following incubation for 20 min at 37 °C, sulfoconjugation reactions were stopped by adding 100 µl cold methanol containing 175 fmol of [^15N5]N ^6-MF-A as the internal standard, mixed and centrifuged at 15,000 g for 10 min. The clear supernatants were subjected to UPLC-MS/MS analyses. Incubations were performed as quadruplicates. At higher concentrations, FFA reacts spontaneously with adenosine at low, but detectable, levels. To correct for the SULT-independent adduct formation, mixtures with SULT-deficient cytosols were carried along simultaneously in duplicate. Controls were subtracted from the experimental samples.
(§3) The ribonucleoside adduct N ^6-((furan-2-yl)methyl)-adenosine (N ^6-MF-A) was analyzed by isotope-dilution UPLC-MS/MS with the same system described above using a HSS T3 column (1.8 µm, 2.1 × 100 mm, Waters). Samples of 8 µl were eluted with 10 mM ammonium bicarbonate buffer, pH 8.0 (A) and methanol (B) using an 6-min gradient from 98 % solvent A to 15 % solvent A at 0.35 ml/min flow rate (Yin et al. [2013]). The electrospray interface of the mass spectrometer operated in the positive ion mode. The fragmentations of N ^6-MF-A into the aglycone cation [N ^6-((furan-2-yl)methyl)-adenine-H]^+ (m/z = 348.1 → 216.1), the cleavage of the 2-methylfuranyl cation (m/z = 348.1 → 81.0) and the release of [N ^6-methyl-adenine-H]^+ (m/z = 348.1 → 148.0) were monitored together with the corresponding fragmentations of the isotope-labeled internal standard [^15N5]N ^6-MF-A for the formation of the aglycone (m/z = 353.1 → 221.1), the 2-methylfuran cation (m/z = 353.1 → 81.0) and ^15N5-labeled N ^6-methyl-adenine (m/z = 353.1 → 153.0). The N ^6-MF-A content of the incubation mixture was calculated from the ratio of peak areas resulting from the total ion current of all three MRM signals of the analyte. For the fragmentation of N ^6-MF-A ([^15N5]N ^6-MF-A), collision energies were 20, 25 and 35 eV for the transitions m/z = 348.1 → 216.1 (m/z = 353.1 → 221.1), m/z = 348.1 → 148.0 (m/z = 353.1 → 153.0) and m/z = 348.1 → 81.0 (m/z = 353.1 → 81.0), respectively. […]

A further assay addresses T2, hSULT2A1 (Homo sapiens, UniProt Q06520).
T2 construct: made in house; host or cells: Salmonella typhimurium TA1538 (cytosolic fraction, not purified)
T2 sequence (Q06520 1-285): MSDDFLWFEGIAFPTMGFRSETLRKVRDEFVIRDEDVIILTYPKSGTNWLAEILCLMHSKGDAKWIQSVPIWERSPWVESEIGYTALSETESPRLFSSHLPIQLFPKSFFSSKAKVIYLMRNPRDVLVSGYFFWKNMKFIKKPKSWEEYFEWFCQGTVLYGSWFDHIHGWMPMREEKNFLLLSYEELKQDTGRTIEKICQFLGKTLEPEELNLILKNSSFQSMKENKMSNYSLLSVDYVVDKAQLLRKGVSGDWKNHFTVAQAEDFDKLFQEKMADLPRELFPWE
As for the experimental part: as §1, §2, §3

For the next assay, the target named is T3, hSULT2B1b (Homo sapiens, UniProt O00204).
T3 construct: made in house; host or cells: Salmonella typhimurium TA1538 (cytosolic fraction, not purified)
T3 sequence (O00204 1-365): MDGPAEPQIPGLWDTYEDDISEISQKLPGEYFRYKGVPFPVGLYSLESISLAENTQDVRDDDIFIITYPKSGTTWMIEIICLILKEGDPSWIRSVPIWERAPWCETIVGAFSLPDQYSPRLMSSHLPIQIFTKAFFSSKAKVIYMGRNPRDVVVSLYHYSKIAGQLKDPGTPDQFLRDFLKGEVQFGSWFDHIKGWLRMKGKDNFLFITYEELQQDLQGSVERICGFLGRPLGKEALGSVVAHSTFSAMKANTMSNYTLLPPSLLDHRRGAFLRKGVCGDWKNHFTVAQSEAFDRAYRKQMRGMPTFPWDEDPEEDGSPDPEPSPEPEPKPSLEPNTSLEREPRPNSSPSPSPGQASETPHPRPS
As for the experimental part: as §1, §2, §3

The target of a further assay is T4, rSult2b1 (Rattus norvegicus, UniProt Q29YR5).
T4 construct: made in house; host or cells: Salmonella typhimurium TA1538 (cytosolic fraction, enzyme not purified)
T4 sequence (Q29YR5 1-340): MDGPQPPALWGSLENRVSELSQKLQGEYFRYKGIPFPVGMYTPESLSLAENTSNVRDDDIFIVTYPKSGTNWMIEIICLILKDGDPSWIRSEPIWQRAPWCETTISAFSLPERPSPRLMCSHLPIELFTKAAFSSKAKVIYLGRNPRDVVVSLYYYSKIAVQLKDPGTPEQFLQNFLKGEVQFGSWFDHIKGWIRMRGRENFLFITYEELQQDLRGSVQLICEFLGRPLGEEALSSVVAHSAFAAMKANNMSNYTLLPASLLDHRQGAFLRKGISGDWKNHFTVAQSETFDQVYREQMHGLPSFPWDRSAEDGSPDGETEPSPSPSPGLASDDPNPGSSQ
As for the experimental part: as §1, §2, §3

T1 sequence (O75897 whole entry): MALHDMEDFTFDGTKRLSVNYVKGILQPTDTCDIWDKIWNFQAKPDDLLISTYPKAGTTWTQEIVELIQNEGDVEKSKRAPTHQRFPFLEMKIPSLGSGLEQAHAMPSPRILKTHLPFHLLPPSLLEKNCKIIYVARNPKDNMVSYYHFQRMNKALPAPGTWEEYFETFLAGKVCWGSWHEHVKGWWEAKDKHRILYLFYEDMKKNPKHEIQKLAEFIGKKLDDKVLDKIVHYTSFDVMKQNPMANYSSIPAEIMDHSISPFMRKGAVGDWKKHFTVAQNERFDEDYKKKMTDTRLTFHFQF

`OCc1ccco1` [FFA, furfuryl alcohol]: the “Rate of N6-MF-A formation” value at hSULT1C2 (0.1 mM FFA) is given as 51.3 ± 0.8 fmol N ^6-MF-A/mg/min; at hSULT1C2 (1 mM FFA), 459 ± 2 fmol N ^6-MF-A/mg/min; on hSULT1C2 (10 mM FFA) it was 2,230 ± 10 fmol N ^6-MF-A/mg/min; on hSULT2A1 (0.1 mM FFA) it was less than 18 fmol N ^6-MF-A/mg/min; on hSULT2A1 (1 mM FFA), 37.0 ± 0.6 fmol N ^6-MF-A/mg/min; at hSULT2A1 (10 mM FFA) it was 386 ± 6 fmol N ^6-MF-A/mg/min. The “Rate of N6-MF-A formation” value is given as less than 18 fmol N ^6-MF-A/mg/min at hSULT2B1b (0.1 mM FFA); less than 20 fmol N ^6-MF-A/mg/min on hSULT2B1b (1 mM FFA); less than 44 fmol N ^6-MF-A/mg/min at hSULT2B1b (10 mM FFA); less than 18 fmol N ^6-MF-A/mg/min on rSult2b1 (0.1 mM FFA); less than 20 fmol N ^6-MF-A/mg/min on rSult2b1 (1 mM FFA); less than 44 fmol N ^6-MF-A/mg/min at rSult2b1 (10 mM FFA). Moreover, the “Rate of N6-MF-A formation (corr.)” value is 45,900 fmol N ^6-MF-A/mg/min and 45,900 ± 200 fmol N ^6-MF-A/mg/min on hSULT1C2 (1 mM FFA, corrected by actual SULT concentration in the cytosolic preparation); 2,110 ± 40^b fmol N ^6-MF-A/mg/min at hSULT2A1 (1 mM FFA, corrected by SULT concentration reported in Meinl et al. [2006]).
